Values quoted from earlier work, collected in article PMC5555364 (ACS chemical neuroscience, 2016).

Columns and labels:
[1] = test system: single-point mutants of rNaV1.4; conditions: all amino acid mutations of Figure 5 except tyrosine 1586
NaV = conditions: hyperpolarizing

Question: What does the source list for Batrachotoxin [BTX]?
Answer: effect of mutations on BTX action on channel function [1]: abrogate the effect of BTX; shift of voltage-dependence of channel activation (NaV): −45 mV
